Assay results published in ChEMBL document CHEMBL1201862, “PubChem BioAssay data set” (2004).
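Compound exposure: 48 hours, 5 concentrations, 96-well plates. GI50: concentration for 50% inhibition of growth.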 Active and inactive are the calls of the source. Rule as the data show it: active = GI50 up to about 1.1 µM and inactive = higher.

Assays:
Experiment in all cases: growth of human tumour cells (NCI), 48 h
[1] = system: A498
[2] = system: A549
[3] = system: CCRF-CEM
[4] = system: DMS-273
[5] = system: EKVX
[6] = system: HL-60
[7] = system: HOP-62
[8] = system: HOP-92
[9] = system: HT-29
[10] = system: IGROV-1
[11] = system: K562
[12] = system: KM12
[13] = system: M14
[14] = system: M19-MEL
[15] = system: MOLT-4
[16] = system: NCI-H226
[17] = system: NCI-H23
[18] = system: NCI-H460
[19] = system: NCI-H522
[20] = system: OVCAR-5
[21] = system: RXF 393
[22] = system: SF-268
[23] = system: SK-MEL-28
[24] = system: SK-OV-3
[25] = system: SNB-19
[26] = system: SNB-78
[27] = system: SR
[28] = system: TK-10
[29] = system: U-251
[30] = system: UACC-62
[31] = system: UO-31
[32] = system: 786-0
[33] = system: ACHN
[34] = system: BT-549
[35] = system: CAKI-1
[36] = system: COLO 205
[37] = system: DU-145
[38] = system: HCC 2998
[39] = system: HCT-116
[40] = system: HCT-15
[41] = system: Hs-578T
[42] = system: LOX IMVI
[43] = system: MCF7
[44] = system: MDA-MB-231
[45] = system: MDA-MB-435
[46] = system: MDA-N
[47] = system: Malme-3M
[48] = system: NCI/ADR-RES
[49] = system: OVCAR-3
[50] = system: OVCAR-4
[51] = system: OVCAR-8
[52] = system: PC-3
[53] = system: RPMI-8226
[54] = system: SF-295
[55] = system: SF-539
[56] = system: SK-MEL-2
[57] = system: SK-MEL-5
[58] = system: SN12C
[59] = system: SNB-75
[60] = system: SW-620
[61] = system: T47D
[62] = system: UACC-257

Structure (SMILES): N#CC1Sc2ccccc2-n2cccc21 (stereo not given)
- GI50 [1]: 67.6 µM (inactive)
- GI50 [2]: 45 µM (inactive)
- GI50 [3]: 70.8 µM (inactive)
- GI50 [4]: 44 µM (inactive)
- GI50 [5]: 61.2 µM (inactive)
- GI50 [6]: 22.8 µM (inactive)
- GI50 [7]: > 100 µM (inactive)
- GI50 [8]: 42.6 µM (inactive)
- GI50 [9]: > 100 µM (inactive)
- GI50 [10]: > 100 µM (inactive)
- GI50 [11]: 26.7 µM (inactive)
- GI50 [12]: 85.7 µM (inactive)
- GI50 [13]: > 100 µM (inactive)
- GI50 [14]: > 100 µM (inactive)
- GI50 [15]: 58.9 µM (inactive)
- GI50 [16]: 4.98 µM (inactive)
- GI50 [17]: 63.7 µM (inactive)
- GI50 [18]: > 100 µM (inactive)
- GI50 [19]: 36.1 µM (inactive)
- GI50 [20]: 24.3 µM (inactive)
- GI50 [21]: 23.2 µM (inactive)
- GI50 [22]: 25.1 µM (inactive)
- GI50 [23]: > 100 µM (inactive)
- GI50 [24]: 67.3 µM (inactive)
- GI50 [25]: > 100 µM (inactive)
- GI50 [26]: 34.7 µM (inactive)
- GI50 [27]: 37.6 µM (inactive)
- GI50 [28]: 80 µM (inactive)
- GI50 [29]: > 100 µM (inactive)
- GI50 [30]: 30.3 µM (inactive)
- GI50 [31]: 25.4 µM (inactive)

Structure (SMILES): C(#CC1(Nc2ccccc2)CCN(Cc2ccccc2)CC1)C1(Nc2ccccc2)CCN(Cc2ccccc2)CC1
- GI50 [32]: 17.3 µM (inactive)
- GI50 [1]: 30.1 µM (inactive)
- GI50 [2]: 23.6 µM (inactive)
- GI50 [33]: 39.4 µM (inactive)
- GI50 [34]: 34.6 µM (inactive)
- GI50 [35]: 24.3 µM (inactive)
- GI50 [3]: 6.27 µM (inactive)
- GI50 [36]: 1.31 µM (inactive)
- GI50 [37]: 46.9 µM (inactive)
- GI50 [5]: 40.6 µM (inactive)
- GI50 [38]: 818 nM (active)
- GI50 [39]: 19.4 µM (inactive)
- GI50 [40]: 22.2 µM
- GI50 [6]: 1.56 µM (inactive)
- GI50 [7]: 16.7 µM (inactive)
- GI50 [8]: 4.95 µM (inactive)
- GI50 [9]: 4.72 µM (inactive)
- GI50 [41]: 10 µM (inactive)
- GI50 [10]: 22.9 µM (inactive)
- GI50 [11]: 1.62 µM (inactive)
- GI50 [12]: 35.3 µM (inactive)
- GI50 [42]: 5.14 µM (inactive)
- GI50 [13]: 11.2 µM (inactive)
- GI50 [43]: 31.5 µM (inactive)
- GI50 [44]: 16.3 µM (inactive)
- GI50 [45]: 25.8 µM (inactive)
- GI50 [46]: 14.5 µM (inactive)
- GI50 [15]: 4.17 µM (inactive)
- GI50 [47]: 3.17 µM (inactive)
- GI50 [16]: 26.7 µM (inactive)
- GI50 [17]: 37.8 µM (inactive)
- GI50 [18]: 16.3 µM (inactive)
- GI50 [19]: 24.8 µM (inactive)
- GI50 [48]: 34.7 µM (inactive)
- GI50 [49]: 37.8 µM (inactive)
- GI50 [50]: 19.3 µM (inactive)
- GI50 [20]: 53.3 µM (inactive)
- GI50 [51]: 21.6 µM (inactive)
- GI50 [52]: 15.1 µM (inactive)
- GI50 [53]: 1.18 µM (inactive)
- GI50 [21]: 12.5 µM (inactive)
- GI50 [22]: 29.1 µM (inactive)
- GI50 [54]: 22.3 µM (inactive)
- GI50 [55]: 5.5 µM (inactive)
- GI50 [23]: 4.8 µM (inactive)
- GI50 [56]: 10.5 µM (inactive)
- GI50 [57]: 3.88 µM (inactive)
- GI50 [24]: 5.01 µM (inactive)
- GI50 [58]: 24.2 µM (inactive)
- GI50 [25]: 23.8 µM (inactive)
- GI50 [59]: 10 µM (inactive)
- GI50 [27]: 3.15 µM (inactive)
- GI50 [60]: 11.2 µM (inactive)
- GI50 [61]: 9.31 µM (inactive)
- GI50 [28]: 13.2 µM (inactive)
- GI50 [29]: 19.9 µM (inactive)
- GI50 [62]: 2.08 µM (inactive)
- GI50 [30]: 13.2 µM (inactive)
- GI50 [31]: 15.5 µM (inactive)
